One assay concerns JHOC-7 cells. Nature of the assay: Proliferation (MTT/WST-8) assay. Format: cell-based. As to conditions: JHOC-7, 72 h. Here is the method:
(§1) Assays of the suppression of cell proliferation were performed with the Cell Counting Kit-8 using the tetrazolium salt WST-8 [2-(2-methoxy-4-nitrophenyl)-3-(4-nitrophenyl)-5-(2,4-disulfophenyl)-2H-tetrazolium, monosodium salt] (Dojindo, Tokyo, Japan) for the methyl thiazolyl tetrazolium (MTT) assay. […] Proliferation was quantified by monitoring the changes in the absorbance at 450 nm, which were normalized relative to the absorbance of cell cultures treated with DMSO alone.
For orientation: Formazan colour is commonly taken as a measure of viable cells.

A further assay has as its system OVMANA cells. Nature of the assay: Proliferation (MTT/WST-8) assay. It is filed as cell-based. Particulars: 72 h. The method, then: as §1
Another assay deals with OVTOKO cells. The experiment in a line: Proliferation (MTT/WST-8) assay. Format: cell-based. As to conditions: 72 h. Here is the method:
as §1

A further assay has as its system RMG-I cells. Nature of the assay: Proliferation (MTT/WST-8) assay. Format: cell-based. As to conditions: Homo sapiens, RMG-1, 72 h. Here is the method:
as §1

The test system of a further assay is SKOV3 cells. Nature of the assay: Proliferation (MTT/WST-8) assay. Format: cell-based. Particulars: Homo sapiens, SK-OV-3; SKOV3, 72 h. Here is the method:
as §1

The test system of assay [1] is phosphorylation of AKT, S6, FOXO1/3a in OCCA cells. Nature of the assay: Immunoblotting of PI3K/mTOR signaling in OCCA cells. As to conditions: OVISE. It is filed as cell-based. The text has this:
Signals were detected using BioRAD western blotting systems (BioRAD, Hercules, CA) with the detection reagents ECL advance and ECL select (GE Healthcare, Piscataway, NJ).
A general note: Immunoblotting shows a protein as a band on a membrane.

Another assay concerns OCCA cell lines. The experiment in a line: Apoptosis by annexin-V FITC/PI staining, OCCA panel. It is filed as cell-based. Particulars: OCCA cells, even at 2,500 nM. The method, then:
Cells (5×10^5) were cultured in 60-mm plates for 24 h before treatment with either DMSO (control), and 156 nM DS-7423, or 2,500 nM DS-7423 for 48 h. Cells were trypsinized, washed twice with PBS, and then analyzed after double staining with annexin-V fluorescein isothiocyanate (FITC) (Abcam, Cambridge, MA) and PI. The apoptotic cell population was analyzed using flow cytometry. All experiments were performed three times.

The next assay has as its system recurrent OCCA. On the set-up: method as in PMID 21243393. Particulars: six cases, weekly administration, recurrent OCCA patients ref 39; cited from earlier work.

A value given as a limit tells only on which side of the number the result lay.

One may read the IC50 as the concentration that inhibits the measured activity by half. Higher therefore signals weaker potency. In the case of `CO[C@H]1C[C@@H]2CC[C@@H](C)[C@@](O)(O2)C(=O)C(=O)N2CCCC[C@H]2C(=O)O[C@H]([C@H](C)C[C@@H]2CC[C@@H](O)[C@H](OC)C2)CC(=O)[C@H](C)/C=C(\C)[C@@H](O)[C@@H](OC)C(=O)[C@H](C)C[C@H](C)/C=C/C=C/C=C/1C` [rapamycin], the IC50 in the assay with JHOC-7 cells, in the assay on OVMANA cells, with OVTOKO cells, in the assay on RMG-I cells and in the assay on SKOV3 cells was more than 2560 nM throughout. Besides, in assay [1] (2,500 nM), the “levels of p-FOXO3a and p-FOXO1” value is “increased”. Besides, the “suppression of p-Akt” value in assay [1] (any dose (0 to 2,500 nM)) was “did not suppress”. In the assay with OCCA cell lines, this compound returned an apoptotic cell death not above 5%.

Turning to `CO[C@H]1C[C@@H]2CC[C@@H](C)[C@@](O)(O2)C(=O)C(=O)N2CCCC[C@H]2C(=O)O[C@H]([C@H](C)C[C@@H]2CC[C@@H](OC(=O)C(C)(CO)CO)[C@H](OC)C2)CC(=O)[C@H](C)/C=C(\C)[C@@H](O)[C@@H](OC)C(=O)[C@H](C)C[C@H](C)/C=C/C=C/C=C/1C` [temsirolimus], the clinical response entry in the assay on recurrent OCCA is “partial response in one patient and stable disease in another patient”.

The values above are taken from paper PMC3913610, “Antitumor Activity and Induction of TP53-Dependent Apoptosis toward Ovarian Clear Cell Adenocarcinoma by the Dual PI3K/mTOR Inhibitor DS-7423” (PLoS ONE, 2014).
